We go through one compound from patent publication US20070015771A1, “Lonidamine analogs” (Threshold pharmaceuticals, Inc., priority 2004, published 2007).

Like-named read-outs stand apart in the source and are kept apart here.

For data set [1], the system named is mouse prostate. In words: Mouse study, 10 days oral, prostate weight. Type of data set: in vivo. The note with it: C57B1/6J mice, oral daily for 10 days, 0.2-20 mg/kg. The procedure:
The control mice received an equal amount of the vehicle (carboxymethylcellulose). […] Relative weights of entire prostate and individual lobes were calculated by dividing the corresponding absolute weight by the total weight of the mouse. Relative weights of the entire prostate, the dorsal prostate, and the ventral prostate were calculated by dividing the absolute weight by the total weight of the mouse. Relative weights of the left and right testis were calculated by dividing the corresponding absolute weights by the total weights of the mouse.

The subject of data set [2] is PWR-1E cells. In words: Antiproliferation assay, PWR-1E cells (Example 48). Type of data set: cell-based. The conditions noted are these: read-out: IC50 PWR-1E cell. The procedure:
(§1) To determine the effect of lonidamine and analogs thereof on cell proliferation, the antiproliferative activity of these compounds was tested in a multi-well Alamar Blue based assay (at 2 h and 3 days). Cell growth in the presence and absence of the test compound (compounds 1-22) was compared, as measured by a fluorescence plate reader at excitation 550 nm and emission 590 nm (see Biosource International Inc., Tech Application Notes, Use of Alamar Blue in the measurement of Cell Viability and Toxicity, Determining IC50). H460 cells (ATCC HTB-177 ([…]), 4,000 cells/well/200 μl) and LNCap cells (ATCC CRL-1740, 6,000 cells/well/200 μl) were seeded in a 96 well plate in RPMI medium (Invitrogen Corporation, Carlsbad, Calif.). After 24 hours, these plates were divided into 3 groups—Control group, 2 h treatment group and 3 day treatment group. In the 2 h treatment group, after 2 h the cells were rinsed to remove the test compound and incubated for 3 days, followed by staining with AlamarBlue. The cells in the 3 day treatment group were incubated for 3 days, followed by staining with AlamarBlue. In the Control group, AlamarBlue was added to the plate at (i) day 0 and (ii) day 3 and measured to establish the control reading.
The effect of lonidamine and analogs thereof on cell proliferation in PWR-1E cells (ATCC CRL-11611) was determined in an antiproliferative assay using PWR-1E cells (5000 cells/well) in Keratinocyte SFM medium (Gibco Products, Invitrogen Corporation, Carlsbad, Calif.) according to the procedure detailed in Example 47 above.

For data set [3], the system named is PNt2 cells. The data set is described as follows: Antiproliferation assay 3 days, PNt2 cells. Type of data set: cell-based. The conditions noted are these: 3 day treatment; read-out: PNT2c cell line IC50. The procedure: To determine the effect of lonidamine analogs thereof on cell proliferation, the antiproliferative activity of these compounds was tested in a multi-well Alamar Blue based assay (at 3 days). Cell growth in the presence and absence of the test compound was compared, as measured by a fluoresence plate reader at excitation 550 nm and emission 590 nm (see Biosource International Inc., Tech Application Notes, Use of Alamar Blue in the measurement of Cell Viability and Toxity, Determining IC50). The following cell lines were tested: PWR-1E cells ((ATCC CRL-11611), 3500 cells/well/200 μl in Keratinocyte SFM medium (Gibco Products, Invitrogen Corporation, Carlsbad, Calif.)); DU-145 cells ((ATCC HTB-81), 4000 cells/well/200 μl in MEM Eagles medium (ATCC, Manassas, Va.)); PC3 cells ((ATCC CRL-1435), 4000 cells/200 μl in Modified HAM's F12 medium (ATCC, Manassas, Va.)); PNt2 cells ((Sigma-Aldrich, 95012613-1 VL), 4000 cells/well/200 μl in RPMI medium (Gibco Products, Invitrogen Corporation, Carlsbad, Calif.), BPH-1 ((DSMZ ACC-143), 4000 cells/well/200 μl in RPMI medium (Gibco Products, Invitrogen Corporation, Carlsbad, Calif), and NCI-H460 cells ((ATCC HTB-177), 4000 cells/well/200 μl in RPMI medium (Gibco Products, Invitrogen Corporation, Carlsbad, Calif.)). The cells were seeded in a 96 well plate in a medium specified above. After 24 hours, these plates were divided into 2 groups—Control group and 3 day treatment group. A test compound was added to each plate in the treatment groups at concentrations of […] as tabulated in Table 1 (in 2 μl 1 of 100% DMSO, final DMSO concentration 1% in all wells). For NCI-H460 cells, test compounds were added to each plate in the treatment groups at concentrations of 600, 300, 100, 30, 10, 3, and 1 μM (in 2 μl of 100% DMSO, final DMSO concentration 1% in all wells). The cells in the 3 day treatment group were incubated for 3 days, followed by staining with AlamarBlue. In the Control group, AlamarBlue was added to the plate at (i) day 0 and (ii) day 3 and measured to establish the control reading. […] For the NCI-H460 cells, the capacity of the cells to proliferate was measured 5 hours after addition of AlamarBlue using the same fluorescence plate reader as stated above.

For data set [4], the system named is testes. In words: 5 day systemic administration in male SH rats, testis. It counts as in vivo, rat. The conditions noted are these: male SH rats, oral daily for 5 days at 50 mg/ml, day 6.
The subject of data set [5] is H460 cells. In words: Antiproliferation assay (Alamar Blue), H460 cells. It counts as cell-based. The procedure:
as §1
(In general: Alamar Blue is a resazurin reagent that responds to reducing activity.)

In data set [6] the test system is SH rat prostate. In words: 5 day systemic administration in male SH rats, prostate. It counts as in vivo. The note with it: male SH rats, oral daily for 5 days at 50 mg/ml, day 6. The procedure:
The effect of test compounds (lonidamine and lonidamine analogs) on the SH rat prostate was determined as follows. The test compound was orally administered daily for 5 days to male, SH rat, (n=6, 14 weeks old, Charles River Labs) at 50 mg/ml concentrations (as a 0.5% carboxymethylcellulose formulation). The control rats received an equal amount of the vehicle ([…]). Blood samples were collected 2 hours after administration on day 6, for pharmokinetic analysis of the compounds. On day 6 the rats were sacrificed and the entire prostate and the individual lobes (e.g., the ventral, dorso-lateral, and anterior lobes) were removed and weighed to measure absolute weights. Relative weights of prostate and individual lobes were calculated by dividing the absolute weight by the total body weight of the […]. Relative weights of the entire prostate, the dorsal prostate, and the ventral prostate were calculated by dividing the absolute weight by the total weight of the mouse. The histomorphology of the prostate was also analyzed and compared to that of the control or untreated prostate.

Data set [7] concerns CD-1 mice. The data set is described as follows: Tolerance study in CD-1 mice. It counts as in vivo, mouse. An excerpt: The toxicological end-points in this study were standard clinical observations such as changes in movement, breathing, food consumption, mortality and decreased body weight.

For orientation: IC50 means the midpoint of a concentration-inhibition curve. A word on the GI50: it is the concentration at which growth is held to half of that of the control. As for `O=C(NO)c1nn(Cc2ccc(Cl)cc2Cl)c2ccccc12` [Compound 1], in data set [1], the “absolute dorsal prostate weight (FIG. 10)” value was “dose dependent reduction”, the “absolute ventral prostate weight (FIG. 9)” value is “dose dependent reduction”, the “absolute whole prostate weight (FIG. 11)” value was “dose dependent reduction” and the prostate weight entry is recorded as “dose dependent reduction”. In data set [1], the “relative dorsal prostate weight (FIG. 7)” value is “dose dependent reduction”, the “relative ventral prostate weight (FIG. 8)” value is listed as “dose dependent reduction” and the “relative whole prostate weight (FIG. 6)” value was “dose dependent reduction”. In addition, the IC50 in data set [2] was 4 µM. In addition, the IC50 in data set [3] was 17 µM. In addition, the Testis shrinkage in data set [4] is given as −2.5%. Besides, the GI50 in data set [5] (3 day treatment, read-out: GI50 H460 cell 3 days) was 15.8 µM. Further, the GI50 in data set [5] (read-out: GI50 H460 cell 2 hr, 2 h treatment then 3 days incubation) was found to be 50 µM. The Prostate shrinkage in data set [6] is on record as −4.8%. The compound also showed a tolerated dose in data set [7] (CD-1 mice, oral dosing for 5 days) of 500 mg/kg/day. In addition, the “therapeutic index compared to lonidamine” value in data set [7] (mice, when used for prostate weight reduction) was 10 fold.
